{"source": "EPA's ToxValDB 9.5 (doi:10.2903/j.efsa.2010.1624)", "key": {"Mus musculus": {"system": "Mus musculus", "details": "acute; oral; mortality"}, "Daphnia magna": {"system": "Daphnia magna", "details": "chronic/long-term; duration: 21 days"}, "Apis mellifera": {"system": "Apis mellifera", "details": "acute; duration: 48 hours; oral; unspecified; mortality"}, "Canidae": {"system": "Canidae", "details": "subchronic; duration: 90 days; oral; Dog Other; histopathology: nonneoplastic"}, "Plant": {"system": "Plant", "details": "chronic/long-term; development"}, "Anas platyrhynchos": {"system": "Anas platyrhynchos", "details": "oral, mortality"}, "Folsomia candida": {"system": "Folsomia candida", "details": "chronic/long-term; reproduction"}, "Typhlodromus pyri": {"system": "Typhlodromus pyri", "details": "not reported"}, "[1]": {"details": "reproduction developmental, reproduction"}}}
{"molecule": "CC(C)N1C(=O)N(c2ccccc2)CSC1=NC(C)(C)C", "note": "[Buprofezin]", "values": [{"measurement": "LC50", "setting": "Colinus virginianus; acute, oral, diet, mortality", "result": "> 1310", "unit": "mg/kg-day"}, {"measurement": "LD50", "setting": "Colinus virginianus; acute, oral, mortality", "result": "> 2000", "unit": "mg/kg-day"}, {"measurement": "NOEC", "setting": "Colinus virginianus; developmental, development", "result": 48, "unit": "mg/kg-day"}, {"measurement": "NOEC", "setting": "Colinus virginianus; [1]", "result": 198, "unit": "mg/kg-day"}, {"measurement": "LD50", "setting": "Mus musculus", "result": "> 2000", "unit": "mg/kg-day"}, {"measurement": "NOEC", "setting": "Daphnia magna", "result": 0.08, "unit": "mg/L"}, {"measurement": "LC50", "setting": "Oncorhynchus mykiss; acute, duration: 96 hours, mortality", "result": 0.33, "unit": "µg/mL"}, {"measurement": "NOEC", "setting": "Oncorhynchus mykiss; chronic/long-term, growth", "result": 0.052, "unit": "mg/L"}, {"measurement": "LD50", "setting": "Rattus norvegicus; acute, oral, mortality", "result": "> 2000", "unit": "mg/kg-day"}, {"measurement": "NOAEL", "setting": "Rattus norvegicus; chronic, duration: 2 years, histopathology: nonneoplastic", "result": 1, "unit": "mg/kg-day"}, {"measurement": "NOAEL", "setting": "Rattus norvegicus; developmental, development", "result": 50, "unit": "mg/kg-day"}, {"measurement": "NOEL", "setting": "Rattus norvegicus; [1]", "result": 66, "unit": "mg/kg-day"}, {"measurement": "LD50", "setting": "Apis mellifera", "result": "> 164", "unit": "µg/piece"}, {"measurement": "NOAEL", "setting": "Canidae", "result": 10, "unit": "mg/kg-day"}, {"measurement": "LEL", "setting": "Plant", "result": "> 100", "unit": "g/ha"}, {"measurement": "LD50", "setting": "Anas platyrhynchos; acute, unspecified", "result": "> 2000", "unit": "mg/kg-day"}, {"measurement": "LC50", "setting": "Anas platyrhynchos; short-term, feed", "result": "> 1310", "unit": "mg/kg-day"}, {"measurement": "NOEC", "setting": "Folsomia candida", "result": 62.5, "unit": "mg/kg"}, {"measurement": "LC50", "setting": "Tagia sp.; acute, duration: 14 days, mortality", "result": "> 1000", "unit": "mg/kg"}, {"measurement": "NOEC", "setting": "Tagia sp.; chronic/long-term, reproduction", "result": 500, "unit": "mg/kg"}, {"measurement": "LEL", "setting": "Typhlodromus pyri; mortality", "result": 3000, "unit": "g/ha"}, {"measurement": "LEL", "setting": "Typhlodromus pyri; reproduction", "result": 3000, "unit": "g/ha"}]}
